Results: patent US20210388337A1, “PROTEIN-POLYMER CONJUGATES AND METHODS FOR THEIR PREPARATION” (Carnegie Mellon University, priority 2018, published 2021)

Columns and labels:
[1] = Hydrodynamic diameter by dynamic light scattering; type: physicochemical; settings: DLS; for substrate size (Dh): biotinylated substrates, text and FIG. 10 legend
Protocol: Measuring conjugate hydrodynamic diameter: The DLS data was collected on a Malvern Zetasizer nano-ZS. Native avidin and avidin conjugates ([…]) were dissolved in 0.1 M sodium phosphate, pH 8. The hydrodynamic diameter (Dh) of the samples was measured three times (12 runs/measurement). Reported values are number distribution intensities.
Instrumentation and Sample Analysis Preparations: ^1H and ^13C NMR were recorded on a spectrometer (300 MHz, 75 MHz, Bruker Avance™ 300), with deuterium oxide (D2O), DMSO-d6, and CDCl3. Routine FT-IR spectra were obtained with a Nicolet Magna-IR 560 spectrometer (Thermo). UV-VIS spectra were obtained and used for protein concentration determination using a UV-VIS spectrometer (Lambda 2, PerkinElmer). Melting points (mp) were measured with a Laboratory Devices Mel-Temp. Number and weight average molecular weights (Mn and Mw) and the polydispersity index (Mw/Mn) were estimated by gel permeation chromatography (GPC) on a Water 2695 Series with a data processor, equipped with three columns (Waters Ultrahydrogel Linier, 500 and 250), using Dulbecco's Phosphate Buffered Saline with 0.02 wt % sodium azide as an eluent at flow rate 1.0 mL/min, with detection by a refractive index (RI) detector. Pullulan standards (PSS-Polymer Standards Service—USA Inc., Amherst, Mass.) were used for calibration. Matrix-Assisted Laser Desorption Ionization Time-of-Flight Spectrometry (MALDI-ToF MS) was performed with a Perseptive Biosystems Voyager Elite MALDI-TOF spectrometer. Dynamic Light Scattering (DLS) data were collected on a Malvern Zetasizer nano-ZS. The concentration of the sample solution was kept at 1.0 mg/mL. The hydrodynamic diameter of samples was measured three times (5 run to each measurement, reported as number distribution) in 0.1 M sodium phosphate, pH 8. Biotin and bio-PEG binding kinetics were measured using a stopped-flow spectrometer with fluorescence detection (Applied Photophysics SX20). […] The excitation wavelength was set to 295 nm and emission wavelength was monitored at 340 nm. […] Fluorescence was measured in volts.

native avidin [2] = biological target: T1, native avidin (Gallus gallus, UniProt P02701); assay: Tryptophan fluorescence quenching assay; type: binding; settings: native avidin 5 μM; added at 20 μM-5.12 mM
T1 construct: Avidin is a tetrameric protein purified from egg white; purchased Lee Biosolutions; host or cells: egg white
Protocol: Tryptophan fluorescence quenching assay: Intrinsic tryptophan fluorescence intensity of native avidin (180 μL, final concentration 5 μM) was measured at an excitation wavelength of 270 nm and emission of 300-400 nm in a 96-well plate. N-2-bromo-2-methylpropanoyl-β-alanine (free initiator) (20 μL, final concentrations 20 μM, 80 μM, 320 μM, 1.28 mM, 5.12 mM) or N-2-methylpropanoyl-β-alanine (free initiation inhibitor) (20 μL, final concentrations 20 μM, 80 μM, 320 μM, 1.28 mM, 5.12 mM) were added to native avidin and tryptophan fluorescence was measured again.

native avidin [3] = biological target: T1, native avidin; assay: Biotin effect on quenched fluorescence; type: binding; settings: native avidin 5 μM; free initiator or free initiation inhibitor 5.12 mM; biotin 10 μM
Protocol: Biotin effect on quenched fluorescence: […] Free initiator (10 μL, final concentrations 5.12 mM) or free initiation inhibitor (10 μL, final concentrations 5.12 mM) were added to avidin solution and florescence intensities were measured. After the fluorescence intensities were recorded with free initiator or free initiation inhibitor, biotin (10 μL, final concentration 10 μM) was added to the mixture and fluorescence intensities were measured again.

[4] = Stopped-flow biotin-PEG binding kinetics, 550 Da; settings: for Biotin-PEG 550 Da k/s^−1: avidin 0.5 μM, biotin-PEG 5.0 μM, 0.1 M phosphate buffer pH 8
Protocol: (§1) Biotin and biotin PEG binding kinetics: Kinetic measurements of avidin-pCBMA conjugates with biotin and biotin-PEG substrates were taken using a stopped-flow spectrometer with fluorescence detection (Applied Photophysics SX20). The dead time of the instrument was 2 ms. The excitation wavelength was 270 nm with 5 nm bandwidth. Instrument permitted to collect 1000 data points throughput the reaction (0.1-450 s). For all experiments avidin concentration was 0.5 μM (final) and biotin or biotin-PEG concentration was 5.0 μM (final). Reactions were initiated by mixing equal volumes of avidin with its substrates in 0.1 M phosphate buffer, pH 8. Fluorescence was measured in volts. Data were fit to single exponential functions using F(t)=F∞·ΔFexp(−kobst) equation, where, kobs is the observed first-order rate constant, F∞ is the final value of fluorescence and ΔF is the amplitude. In case of native avidin kinetics the data were fit to single exponential functions using F(t)=F∞+ΔFexp(−kobst) equation, where, kobs is the observed first-order rate constant, F∞ is the final value of fluorescence and ΔF is the amplitude. All data analysis was performed in Microsoft Excel.
Instrumentation and Sample Analysis Preparations: ^1H and ^13C NMR were recorded on a spectrometer (300 MHz, 75 MHz, Bruker Avance™ 300), with deuterium oxide (D2O), DMSO-d6, and CDCl3. Routine FT-IR spectra were obtained with a Nicolet Magna-IR 560 spectrometer (Thermo). UV-VIS spectra were obtained and used for protein concentration determination using a UV-VIS spectrometer (Lambda 2, PerkinElmer). Melting points (mp) were measured with a Laboratory Devices Mel-Temp. […] The hydrodynamic diameter of samples was measured three times (5 run to each measurement, reported as number distribution) in 0.1 M sodium phosphate, pH 8. Biotin and bio-PEG binding kinetics were measured using a stopped-flow spectrometer with fluorescence detection (Applied Photophysics SX20). […] The excitation wavelength was set to 295 nm and emission wavelength was monitored at 340 nm. […] Fluorescence was measured in volts.

[5] = Stopped-flow biotin-PEG binding kinetics, 10 kDa; settings: avidin 0.5 μM, biotin-PEG 5.0 μM, 0.1 M phosphate buffer pH 8
Protocol: as §1, with “All data analysis was performed in Microsoft Excel.” left out
(§2) Instrumentation and Sample Analysis Preparations: ^1H and ^13C NMR were recorded on a spectrometer (300 MHz, 75 MHz, Bruker Avance™ 300), with deuterium oxide (D2O), DMSO-d6, and CDCl3. […] Melting points (mp) were measured with a Laboratory Devices Mel-Temp. […]

Biotin-HRP = assay: Stopped-flow biotin-protein binding kinetics, biotin-HRP; settings: avidin 0.5 μM, biotin-protein 5.0 μM, 0.1 M phosphate buffer pH 8
Protocol: (§3) The solution was stirred at 4° C. for 2 hours and protein-biotin conjugates were purified by dialysis using 15 kDa molecular mass cutoff dialysis tube in deionized water and then lyophilized.
(§4) Biotin-Protein binding kinetics: For biotinylated protein binding kinetics avidin conjugates (0.5 μM final) were mixed with biotin-protein (5.0 μM final) in a stopped-flow accessory on PTI QuantaMaster-400 fluorometer (Horiba Instruments Inc.). The dead time of the instrument was 60 ms. The excitation wavelength was 295 nm (to selectively excite tryptophan residues) with a 20 nm bandwidth (Skelly et al., FEBS Lett 262:127-130, 1990). Excitation occurred through a 1.96-mm path in the stopped-flow optical cell, and emission was measured through a 7.68-mm path. […]
(§5) Instrumentation and Sample Analysis Preparations: ^1H and ^13C NMR were recorded on a spectrometer (300 MHz, 75 MHz, Bruker Avance™ 300), with deuterium oxide (D2O), DMSO-d6, and CDCl3. […] Melting points (mp) were measured with a Laboratory Devices Mel-Temp. […] The hydrodynamic diameter of samples was measured three times (5 run to each measurement, reported as number distribution) in 0.1 M sodium phosphate, pH 8. Biotin and bio-PEG binding kinetics were measured using a stopped-flow spectrometer with fluorescence detection (Applied Photophysics SX20). […] The excitation wavelength was set to 295 nm and emission wavelength was monitored at 340 nm. […]

[6] = Stopped-flow binding kinetics of biotin to avidin and avidin-pCBMA conjugates; settings: kobs first-order, avidin 0.5 μM, biotin 5.0 μM, 0.1 M phosphate buffer pH 8
Protocol: as §1, with “All data analysis was performed in Microsoft Excel.” left out
as §2

[7] = Stopped-flow biotin-PEG binding kinetics, 5 kDa; settings: avidin 0.5 μM, biotin-PEG 5.0 μM, 0.1 M phosphate buffer pH 8
Protocol: as §1, with “All data analysis was performed in Microsoft Excel.” left out
as §2

[8] = Stopped-flow biotin-PEG binding kinetics, 30 kDa; settings: avidin 0.5 μM, biotin-PEG 5.0 μM, 0.1 M phosphate buffer pH 8
Protocol: as §1, with “All data analysis was performed in Microsoft Excel.” left out
as §2

Biotin-aprotinin = biological target: T2, Biotin-aprotinin (Bos taurus, UniProt P00974); assay: Stopped-flow biotin-protein binding kinetics, biotin-aprotinin; settings: avidin 0.5 μM, biotin-protein 5.0 μM, 0.1 M phosphate buffer pH 8
T2 construct: purchased Sigma Aldrich
Protocol: as §3, §4, §5

[9] = work described elsewhere (Kurzban et al.); 337 to 324 nm, blue shift in emission; cited from earlier work
[10] = Table 4, low-density avidin conjugates
[11] = Table 9, high-density avidin conjugates

Q: For Aprotinin [reference compound], which “Dh (hydrodynamic size)” value ([1]; bio-pro substrates, Table 3) is on record?
A: Its value is 2.4 ± 0.4.

Q: And the “substrate size (Dh)” value ([1]; listed as biotin-aprotinin)?
A: Its value is 2.4±0.4 nm.

Q: What about the “substrate size (Dh)” value ([1]; listed as biotinylated aprotinin) of the same compound?
A: The value was 2.4 nm.

Q: With `CC(C)(Br)C(=O)NCCC(=O)O` [free initiator, N-2-bromo-2-methylpropanoyl-β-alanine] as the compound, how does the “quenching of native avidin tryptophan fluorescence” value (native avidin [2]) read?
A: Its value is “higher degree of fluorescence quenching”.

Q: For `CC(C)C(=O)NCCC(=O)O` [free initiation inhibitor, N-2-methylpropanoyl-β-alanine], which “quenching of native avidin tryptophan fluorescence” value (native avidin [2]) is on record?
A: Its value is “None of the tested concentrations of initiation inhibitor had an effect on fluorescence”.

Q: And the “effect on tryptophan fluorescence of native avidin incubated with free initiator or free initiation inhibitor” value (native avidin [3])?
A: The value was “did not have effect on fluorescence”.

Q: With Native avidin as the compound, how does the “Biotin-PEG 550 Da k/s^−1” value [4, 10] read?
A: Its value is 20.93 s⁻¹.

Q: And the “Biotin-PEG 550 Da k/s^−1” value [4, 11]?
A: Its value is 20.93 s⁻¹.

Q: What about the “binding rate of biotin-PEG 550 Da, slower than biotin” value ([4]; relative to biotin binding rate) of the same compound?
A: The value was 80%.

Q: And the “Biotin-PEG 10 kDa k/s^−1” value [5, 10]?
A: Its value is 12.02 s⁻¹.

Q: And the “Biotin-PEG 10 kDa k/s^−1” value [5, 11]?
A: The value was 12.02 s⁻¹.

Q: What about the “Biotin-HRP k/s^−1” value (Biotin-HRP; [10]) of the same compound?
A: Its value is 5.03 s⁻¹.

Q: What about the “Biotin-HRP k/s^−1” value (Biotin-HRP; [11]) of the same compound?
A: Its value is 5.03 s⁻¹.

Q: And the “Biotin k/s^−1” value [6, 10]?
A: The value was 105.21 s⁻¹.

Q: And the “Biotin k/s^−1” value [6, 11]?
A: Its value is 105.21 s⁻¹.

Q: What about the “Biotin-PEG 5 kDa k/s^−1” value [7, 10] of the same compound?
A: Its value is 17.02 s⁻¹.

Q: What about the “Biotin-PEG 5 kDa k/s^−1” value [7, 11] of the same compound?
A: Its value is 17.02 s⁻¹.

Q: What about the “Biotin-PEG 30 kDa k/s^−1” value [8, 10] of the same compound?
A: The value was 5.89 s⁻¹.

Q: What about the “Biotin-PEG 30 kDa k/s^−1” value [8, 11] of the same compound?
A: The value was 5.89 s⁻¹.

Q: What about the “Biotin-aprotinin k/s^−1” value (Biotin-aprotinin; [10]) of the same compound?
A: The value was 73.45 s⁻¹.

Q: And the “Biotin-aprotinin k/s^−1” value (Biotin-aprotinin; [11])?
A: Its value is 73.45 s⁻¹.

Q: And the “intrinsic tryptophan fluorescence of avidin upon biotin binding” value [9]?
A: Its value is “decreased”.

Q: Which “effect on tryptophan fluorescence of native avidin incubated with free initiator or free initiation inhibitor” value (native avidin [3]) does the source give for `O=C(O)CCCC[C@@H]1SC[C@@H]2NC(=O)N[C@@H]21` [biotin] here?
A: Its value is “restored the quenched tryptophan fluorescence”.
